Counter-ions that a name gives are not always drawn.
How the values were obtained:
[1] = target: BACE1 enzyme (Homo sapiens, UniProt P56817); assay: BACE1 cell-free assay (fluorescence polarization, synthetic APP substrate); type: biochemical; details: for IC50: values marked b from a single determination; for activity against the BACE1 enzyme: statement in words, used to assign stereochemistry;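 as to all read-outs here: soluble His-tagged BACE1 purified from transfected CHO-K1 cell media, biotinylated Oregon Green-labelled peptide substrate, 3 h at 37 °C, cleavage followed as change in fluorescence polarization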
Sequence of BACE1 enzyme (P56817 46-501 limits assumed): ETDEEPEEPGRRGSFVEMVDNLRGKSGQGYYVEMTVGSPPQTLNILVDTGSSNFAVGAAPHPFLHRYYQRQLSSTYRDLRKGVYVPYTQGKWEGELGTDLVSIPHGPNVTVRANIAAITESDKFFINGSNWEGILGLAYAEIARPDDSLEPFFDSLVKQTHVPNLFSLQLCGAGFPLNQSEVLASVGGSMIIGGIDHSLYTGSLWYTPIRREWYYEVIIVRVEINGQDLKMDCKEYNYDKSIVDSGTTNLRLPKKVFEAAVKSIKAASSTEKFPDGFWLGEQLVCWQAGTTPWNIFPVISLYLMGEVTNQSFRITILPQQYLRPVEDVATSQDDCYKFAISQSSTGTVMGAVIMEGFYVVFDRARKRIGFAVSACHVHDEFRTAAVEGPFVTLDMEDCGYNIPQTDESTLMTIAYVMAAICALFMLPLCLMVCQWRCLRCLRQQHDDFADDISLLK

[2] = system: sAPPβ levels in H4 human neuroglioma cells over-expressing wild-type human APP695; assay: sAPPβ whole cell assay (in vitro sAPPb assay, TMB-ELISA); type: cell-based
[3] = geometric mean of 2-6 determinations
[4] = Homo sapiens, 18 hours, geometric mean of 2-6 determinations
[5] = geometric mean of 2-4 determinations
[6] = Homo sapiens, 18 hours, geometric mean of 2-4 determinations, values marked b from a single determination
[7] = Homo sapiens, 18 h, geometric mean of 2-4 determinations, values marked b from a single determination

SMILES: NC1=N[C@@]2(c3ccccc3F)COCC[C@H]2CS1 (racemic) [Example 23]
- IC50 [1, 3]: 7950 nM
- IC50 ([2]; 18 hours, geometric mean of 2-6 determinations): 436 nM

SMILES: C[C@H]1SC(N)=N[C@@]2(c3ccccc3F)COCC[C@@H]12 (racemic) [Example 27]
- IC50 [1, 3]: 6720 nM
- IC50 [2, 4]: 434 nM

SMILES: C[C@@H]1SC(N)=N[C@@]2(c3ccccc3F)COCC[C@@H]12 (racemic) [Example 28]
- IC50 [1, 3]: 11200 nM
- IC50 [2, 4]: 445 nM

SMILES: C[C@H]1SC(N)=N[C@@]2(c3cc(Br)ccc3F)COCC[C@@H]12 (racemic) [Example 30]
- IC50 [1, 3]: 27800 nM
- IC50 [2, 4]: 1650 nM

SMILES: C[C@H]1SC(N)=N[C@@]2(c3cc(-c4cncnc4)ccc3F)COCC[C@@H]12 (racemic) [Example 31]
- IC50 [1, 3]: 3000 nM
- IC50 [2, 4]: 112 nM

SMILES: NC1=N[C@@]2(c3ccc(F)cc3)COCC[C@H]2CS1 (relative stereo) [Example 11, rel-(4aR,8aS)-8a-(4-Fluorophenyl)-4,4a,5,6,8,8a-hexahydropyrano[3,4-d][1,3]thiazin-2-amine]
- IC50 [1, 5]: 7520 nM
- IC50 [2, 6]: 380 nM

SMILES: NC1=N[C@@]2(c3ccccc3F)COCC[C@H]2CS1 (relative stereo) [Example 12, rel-(4aR,8aS)-8a-(2-Fluorophenyl)-4,4a,5,6,8,8a-hexahydropyrano[3,4-d][1,3]thiazin-2-amine]
- IC50 [1, 5]: 7950 nM
- IC50 [2, 7]: 436 nM

SMILES: Cc1ccc([C@]23COCC[C@H]2CSC(N)=N3)c(F)c1 (relative stereo) [Example 13, rel-(4aR,8aS)-8a-(2-Fluoro-4-methylphenyl)-4,4a,5,6,8,8a-hexahydropyrano[3,4-d][1,3]thiazin-2-amine, hydrochloride salt]
- IC50 [1, 5]: 3730 nM
- IC50 [2, 6]: 438 nM

SMILES: NC1=N[C@@]2(c3ccccc3)COCC[C@H]2CS1 (relative stereo) [Example 14, rel-(4aR,8aS)-8a-Phenyl-4,4a,5,6,8,8a-hexahydropyrano[3,4-d][1,3]thiazin-2-amine]
- IC50 [1, 5]: 10400 nM
- IC50 [2, 6]: 477 nM

SMILES: NC1=N[C@@]2(c3c(F)cccc3F)COCC[C@H]2CS1 (relative stereo) [Example 16, rel-(4aR,8aS)-8a-(2,6-Difluorophenyl)-4,4a,5,6,8,8a-hexahydropyrano[3,4-d][1,3]thiazin-2-amine]
- IC50 [2, 7]: 506 nM

SMILES: NC1=N[C@@]2(c3ccc(Cl)cc3F)COCC[C@H]2CS1 (relative stereo) [Example 17, rel-(4aR,8aS)-8a-(4-chloro-2-Fluorophenyl)-4,4a,5,6,8,8a-hexahydropyrano[3,4-d][1,3]thiazin-2-amine, hydrochloride salt]
- IC50 [1, 5]: 10200 nM
- IC50 [2, 6]: 775 nM

SMILES: NC1=N[C@@]2(c3ccc(O)cc3F)COCC[C@H]2CS1 (relative stereo) [Example 18, rel-4-[(4aR,8aS)-2-Amino-4,4a,5,6-tetrahydropyrano[3,4-d][1,3]thiazin-8a(8H)-yl]-3-fluorophenol, ammonium salt]
- IC50 [1, 5]: 5350 nM
- IC50 [2, 6]: 1000 nM

SMILES: COc1ccccc1[C@]12COCC[C@H]1CSC(N)=N2 (relative stereo) [Example 19, rel-(4aR,8aS)-8a-(2-Methoxyphenyl)-4,4a,5,6,8,8a-hexahydropyrano[3,4-d][1,3]thiazin-2-amine]
- IC50 [1, 5]: > 100000 nM
- IC50 [2, 6]: 4030 nM

SMILES: NC1=N[C@@]2(c3ccc(F)cc3F)COCC[C@H]2CS1 [Example 1, (4aR,8aS)-8a-(2,4-Difluorophenyl)-4,4a,5,6,8,8a-hexahydropyrano[3,4-d][1,3]thiazin-2-amine]
- activity against the BACE1 enzyme [1]: displays activity against the BACE1 enzyme
- IC50 [2, 6]: 211 nM

SMILES: CC(C)OC[C@H]1C[C@H]2CSC(N)=N[C@@]2(c2ccccc2F)CO1 [Example 2, (4aR,6R,8aS)-8a-(2-Fluorophenyl)-6-[(propan-2-yloxy)methyl]-4,4a,5,6,8,8a-hexahydropyrano[3,4-d][1,3]thiazin-2-amine, trifluoroacetate salt]
- IC50 [1, 5]: 396 nM
- IC50 [2, 6]: 72.9 nM

SMILES: NC1=N[C@@]2(c3ccc(F)cc3F)CO[C@@H](CO)C[C@H]2CS1 [Example 3, [(4aR,6R,8aS)-2-Amino-8a-(2,4-difluorophenyl)-4,4a,5,6,8,8a-hexahydropyrano[3,4-d][1,3]thiazin-6-yl]methanol]
- IC50 [1, 5]: 2270 nM
- IC50 [2, 6]: 436 nM

SMILES: NC1=N[C@@]2(c3ccccc3F)CO[C@@H](CF)C[C@H]2CS1 [Example 5, (4aR,6R,8aS)-6-(Fluoromethyl)-8a-(2-fluorophenyl)-4,4a,5,6,8,8a-hexahydropyrano[3,4-d][1,3]thiazin-2-amine]
- IC50 [1, 5]: 838 nM
- IC50 [2, 6]: 83.4 nM

SMILES: NC1=N[C@@]2(c3ccc(F)cc3F)CO[C@@H](COCc3ccccc3)C[C@H]2CS1 [Example 6, (4aR,6R,8aS)-6-[(Benzyloxy)methyl]-8a-(2,4-difluorophenyl)-4,4a,5,6,8,8a-hexahydropyrano[3,4-d][1,3]thiazin-2-amine, trifluoroacetic acid salt]
- IC50 [1, 5]: 32.3 nM
- IC50 [2, 6]: 64.6 nM

SMILES: NC1=N[C@@]2(c3ccccc3F)CO[C@@H](COc3ccccc3)C[C@H]2CS1 [Example 7, (4aR,6R,8aS)-8a-(2-Fluorophenyl)-6-(phenoxymethyl)-4,4a,5,6,8,8a-hexahydropyrano[3,4-d][1,3]thiazin-2-amine]
- IC50 [1, 5]: 826 nM
- IC50 [2, 6]: 108 nM

SMILES: NC1=N[C@@]2(c3ccccc3F)CO[C@@H](COc3ccccn3)C[C@H]2CS1 [Example 8, (4aR,6R,8aS)-8a-(2-Fluorophenyl)-6-[(pyridin-2-yloxy)methyl]-4,4a,5,6,8,8a-hexahydropyrano[3,4-d][1,3]thiazin-2-amine]
- IC50 [1, 5]: 2380 nM
- IC50 [2, 6]: 239 nM

SMILES: CCOC[C@H]1C[C@H]2CSC(N)=N[C@@]2(c2ccccc2F)CO1 [Example 9, (4aR,6R,8aS)-6-(Ethoxymethyl)-8a-(2-fluorophenyl)-4,4a,5,6,8,8a-hexahydropyrano[3,4-d][1,3]thiazin-2-amine, trifluoroacetic acid salt]
- IC50 [1, 5]: 914 nM
- IC50 [2, 6]: 80 nM

SMILES: NC1=N[C@@]2(c3ccccc3F)CO[C@@H](COC(=O)c3ccccc3)C[C@H]2CS1 [Example 15, [(4aR,6R,8aS)-2-Amino-8a-(2-fluorophenyl)-4,4a,5,6,8,8a-hexahydropyrano[3,4-d][1,3]thiazin-6-yl]methyl benzoate]
- IC50 [1, 5]: 13000 nM
- IC50 [2, 6]: 492 nM

SMILES: NC1=N[C@]2(c3ccc(F)cc3F)COCC[C@@H]2CS1 [Example 20, (4aS,8aR)-8a-(2,4-Difluorophenyl)-4,4a,5,6,8,8a-hexahydropyrano[3,4-d][1,3]thiazin-2-amine]
- activity against the BACE1 enzyme [1]: does not
- IC50 [2, 6]: > 27100 nM

SMILES: NC1=N[C@@]2(c3ccccc3F)CO[C@@H](COc3cnccn3)C[C@H]2CS1 [Example 21, (4aR,6R,8aS)-8a-(2-Fluorophenyl)-6-[(pyrazin-2-yloxy)methyl]-4,4a,5,6,8,8a-hexahydropyrano[3,4-d][1,3]thiazin-2-amine, trifluoroacetic acid salt]
- IC50 [1, 5]: 2030 nM
- IC50 [2, 6]: 23.1 nM

SMILES: NC1=N[C@@]2(c3ccccc3F)CO[C@@H](COc3ncccn3)C[C@H]2CS1 [Example 22, (4aR,6R,8aS)-8a-(2-Fluorophenyl)-6-[(pyrimidin-2-yloxy)methyl]-4,4a,5,6,8,8a-hexahydropyrano[3,4-d][1,3]thiazin-2-amine, trifluoroacetic acid salt]
- IC50 [1, 5]: 8030 nM
- IC50 [2, 6]: 71.1 nM

SMILES: NC1=N[C@@]2(c3ccccc3F)COCC[C@H]2CS1 [Example 24]
- IC50 [1, 3]: 4540 nM
- IC50 ([2]; Homo sapiens, 18 h, geometric mean of 2-6 determinations): 452 nM

SMILES: NC1=N[C@@]2(c3ccccc3OC(F)(F)F)COCC[C@H]2CS1 [Example 25]
- IC50 [1, 3]: 87900 nM

SMILES: COC[C@H]1C[C@H]2CSC(N)=N[C@@]2(c2ccccc2F)CO1 [Example 26]
- IC50 [1, 3]: 1240 nM
- IC50 [2, 4]: 148 nM

SMILES: NC1=N[C@@]2(c3ccccc3F)CO[C@@H](CO)C[C@H]2CS1 [Example 29]
- IC50 [1, 3]: 8410 nM
- IC50 [2, 4]: 493 nM
